The values below come from ChEMBL document CHEMBL4699440, “Comprehensive review on the anti-bacterial activity of 1,2,3-triazole hybrids” (Eur J Med Chem, 2019).

Common to all, as to type: functional
The subject of one assay is Streptococcus pyogenes. Put plainly: Antibacterial activity against Streptococcus pyogenes ATCC 35552 incubated for 24 hrs by tube dilution method.
For assay [1], the system named is Pseudomonas aeruginosa. As to the kind of experiment: Antibacterial activity against Pseudomonas aeruginosa ATCC 12454 incubated for 24 hrs by tube dilution method.
For assay [2], the system named is Staphylococcus aureus. Put plainly: Antibacterial activity against Staphylococcus aureus ATCC 25923 incubated for 24 hrs by tube dilution method.
For assay [3], the system named is Escherichia coli. As to the kind of experiment: Antibacterial activity against Escherichia coli ATCC 25922 incubated for 24 hrs by tube dilution method.
Assay [4] relates to Klebsiella pneumoniae. As to the kind of experiment: Antibacterial activity against Klebsiella pneumoniae ATCC 15380 incubated for 24 hrs by tube dilution method.
The test system of a further assay is Bacillus subtilis. Put plainly: Antibacterial activity against Bacillus subtilis RCMB 010067 by broth dilution method.
The test system of assay [5] is Pseudomonas aeruginosa. As to the kind of experiment: Antibacterial activity against Pseudomonas aeruginosa RCMB 010043 by broth dilution method.
Assay [6] relates to Escherichia coli. Put plainly: Antibacterial activity against Escherichia coli RCMB 010052 by broth dilution method.
The subject of assay [7] is Klebsiella pneumoniae. Put plainly: Antibacterial activity against Klebsiella pneumonia RCMB 010058 by broth dilution method.
The subject of assay [8] is Staphylococcus aureus. As to the kind of experiment: Antibacterial activity against Staphylococcus aureus RCMB 010025 by broth dilution method.
For the next assay, the system named is Streptococcus pneumoniae. Put plainly: Antibacterial activity against Streptococcus pneumoniae RCMB 010010 by broth dilution method.
The subject of the next assay is Curvularia lunata. Put plainly: Antifungal activity against Curvularia lunata NCIM 1131 incubated for 48 hrs.
Assay [9] deals with Sphingomonas paucimobilis. Put plainly: Antibacterial activity against Flavobacterium devorans ATCC 10829 incubated for 24 hrs.
In the next assay the test system is Pseudomonas fluorescens. Put plainly: Antibacterial activity against Pseudomonas fluorescens NCIM 2173 incubated for 24 hrs.
In assay [10] the test system is Escherichia coli. Put plainly: Antibacterial activity against Escherichia coli NCIM 2256 incubated for 24 hrs.
Assay [11] concerns Staphylococcus aureus. As to the kind of experiment: Antibacterial activity against Staphylococcus aureus ATCC 29737 incubated for 24 hrs.
In another assay the test system is Penicillium chrysogenum. As to the kind of experiment: Antifungal activity against Penicillium chrysogenum NCIM 723 incubated for 48 hrs.
The subject of the next assay is Micrococcus luteus. Put plainly: Antibacterial activity against Micrococcus Luteus ATCC 398 incubated for 24 hrs.
Assay [12] relates to Bacillus cereus. As to the kind of experiment: Antibacterial activity against Bacillus cereus ATCC 6630 incubated for 24 hrs.
Another assay concerns Aspergillus niger. As to the kind of experiment: Antifungal activity against Aspergillus niger NCIM 1196 incubated for 48 hrs.
The test system of assay [13] is Escherichia coli. Put plainly: Antibacterial activity against Escherichia coli by agar dilution method.
Assay [14] has as its system Pseudomonas aeruginosa. Put plainly: Antibacterial activity against Pseudomonas aeruginosa by agar dilution method.
Assay [15] relates to Bacillus cereus. As to the kind of experiment: Antibacterial activity against Bacillus cereus by agar dilution method.
The subject of assay [16] is Staphylococcus aureus. As to the kind of experiment: Antibacterial activity against Staphylococcus aureus by agar dilution method.

Molecules are shown by their SMILES. ≈ marks a conversion by molar mass, not a printed value.

Take `O=Cc1cn(-c2ccccc2)nc1-c1ccccc1OCc1cn(Cc2cccc(Cl)c2)nn1`: the MIC against Streptococcus pyogenes, in the assay with Pseudomonas aeruginosa [1], with Staphylococcus aureus [2], against Escherichia coli [3] and with Klebsiella pneumoniae [4] was 5.5 µg/mL (≈ 11.7 µM) throughout.
As to `O=Cc1cn(-c2ccccc2)nc1-c1cc(Cl)ccc1OCc1cn(Cc2ccccc2)nn1`, the MIC against Streptococcus pyogenes, with Pseudomonas aeruginosa [1], in the assay with Staphylococcus aureus [2], in the assay with Escherichia coli [3] and with Klebsiella pneumoniae [4] was 5.5 µg/mL (≈ 11.7 µM) each time.
Take `OCCCSc1nnc(-c2nnn(-c3ccccc3Cl)c2-c2nnc(SCCCO)o2)o1`: the MIC against Bacillus subtilis, with Pseudomonas aeruginosa [5], in the assay on Escherichia coli [6], against Klebsiella pneumoniae [7], against Staphylococcus aureus [8] and against Streptococcus pneumoniae was 4 µg/mL (≈ 8.06 µM) in each case.
For `CCOCSc1nnc(-c2nnn(-c3ccccc3Cl)c2-c2nnc(SCOCC)o2)o1`, the MIC in the assay on Bacillus subtilis, in the assay on Pseudomonas aeruginosa [5], with Escherichia coli [6], with Klebsiella pneumoniae [7], in the assay with Staphylococcus aureus [8] and with Streptococcus pneumoniae was 31.2 µg/mL (≈ 63 µM) throughout.
With `Cc1ccc(OCc2cn(Cc3ccccc3)nn2)c(-c2nn(-c3ccccc3)cc2C=O)c1`, the MIC with Streptococcus pyogenes, with Pseudomonas aeruginosa [1], in the assay with Staphylococcus aureus [2], in the assay with Escherichia coli [3] and in the assay on Klebsiella pneumoniae [4] was 5.5 µg/mL (≈ 12.2 µM) each time.
For `O=Cc1cn(-c2ccccc2)nc1-c1ccccc1OCc1cn(Cc2ccc(Br)cc2)nn1`, the minimum inhibitory concentration (MIC) against Streptococcus pyogenes, against Pseudomonas aeruginosa [1], in the assay with Staphylococcus aureus [2], against Escherichia coli [3] and in the assay with Klebsiella pneumoniae [4] was 5.5 µg/mL (≈ 10.7 µM) throughout.
Consider `OCCSc1nnc(-c2nnn(-c3ccccc3Cl)c2-c2nnc(SCCO)o2)o1`, for which the minimum inhibitory concentration (MIC) against Bacillus subtilis, with Pseudomonas aeruginosa [5], against Escherichia coli [6], in the assay on Klebsiella pneumoniae [7], against Staphylococcus aureus [8] and against Streptococcus pneumoniae was 4 µg/mL (≈ 8.55 µM) throughout.
Take `Cc1cc(OCc2cn(Cc3cccc(Cl)c3)nn2)cc2oc(=O)ccc12`: the MIC (in the assay on Curvularia lunata; in assay [9]; in the assay with Pseudomonas fluorescens; in the assay with Escherichia coli [10]; in the assay with Staphylococcus aureus [11]; with Penicillium chrysogenum) was 2 µg/mL (≈ 5.24 µM) each time. The MIC against Micrococcus luteus, against Bacillus cereus [12] and in the assay with Aspergillus niger was 2 µg/mL (≈ 5.24 µM) each time.
`O=c1cc(OCc2cn(Cc3cccc(Cl)c3)nn2)c2ccccc2o1`: the MIC (against Curvularia lunata; in [9]; against Pseudomonas fluorescens; with Escherichia coli [10]; with Staphylococcus aureus [11]; with Penicillium chrysogenum) was 2 µg/mL (≈ 5.44 µM) each time. Also, the minimal inhibitory concentration (MIC) in the assay on Micrococcus luteus, against Bacillus cereus [12] and with Aspergillus niger was 2 µg/mL (≈ 5.44 µM) throughout.
Consider `CC(=O)OCC(CSc1nnc(-c2nnn(-c3ccccc3Cl)c2-c2nnc(SCC(COC(C)=O)OC(C)=O)o2)o1)OC(C)=O` (stereo not given), for which the MIC with Bacillus subtilis, with Pseudomonas aeruginosa [5], with Escherichia coli [6], with Klebsiella pneumoniae [7], in the assay on Staphylococcus aureus [8] and in the assay on Streptococcus pneumoniae was 31.2 µg/mL (≈ 44.9 µM) throughout.
In the case of `O=Cc1cn(-c2ccccc2)nc1-c1cc(Cl)ccc1OCc1cn(Cc2cccc(Cl)c2)nn1`, the MIC with Streptococcus pyogenes, against Pseudomonas aeruginosa [1], against Staphylococcus aureus [2], in the assay with Escherichia coli [3] and in the assay on Klebsiella pneumoniae [4] was 5.5 µg/mL (≈ 10.9 µM) throughout.
Regarding `O=c1cc(OCc2cn(Cc3ccc([N+](=O)[O-])cc3)nn2)c2ccccc2o1`, the MIC (against Curvularia lunata; in [9]; in the assay on Pseudomonas fluorescens; against Escherichia coli [10]; against Staphylococcus aureus [11]; in the assay with Penicillium chrysogenum) was 2 µg/mL (≈ 5.29 µM) each time. Further, the MIC against Micrococcus luteus, against Bacillus cereus [12] and with Aspergillus niger was 2 µg/mL (≈ 5.29 µM) in each case.
On to `O=Cc1cn(-c2ccccc2)nc1-c1ccccc1OCc1cn(Cc2ccccc2)nn1`, for which the MIC against Streptococcus pyogenes, with Pseudomonas aeruginosa [1], against Staphylococcus aureus [2], against Escherichia coli [3] and against Klebsiella pneumoniae [4] was 5.5 µg/mL (≈ 12.6 µM) each time.
In the case of `Cc1cc(OCc2cn(Cc3ccc(Br)cc3)nn2)cc2oc(=O)ccc12`, the MIC (against Curvularia lunata; in assay [9]; in the assay on Pseudomonas fluorescens; in the assay on Escherichia coli [10]; in the assay on Staphylococcus aureus [11]; in the assay on Penicillium chrysogenum) was 2 µg/mL (≈ 4.69 µM) each time. Moreover, the MIC against Micrococcus luteus, against Bacillus cereus [12] and against Aspergillus niger was 2 µg/mL (≈ 4.69 µM) each time.
As to `Cc1cc(OCc2cn(Cc3ccccc3)nn2)cc2oc(=O)ccc12`, the MIC (in the assay on Curvularia lunata; in [9]; in the assay on Pseudomonas fluorescens; against Escherichia coli [10]; in the assay on Staphylococcus aureus [11]; with Penicillium chrysogenum) was 2 µg/mL (≈ 5.76 µM) in each case. For the same compound, the MIC in the assay with Micrococcus luteus, with Bacillus cereus [12] and with Aspergillus niger was 2 µg/mL (≈ 5.76 µM) in each case.
Take `Cc1ccc(OCc2cn(Cc3cccc(Cl)c3)nn2)c(-c2nn(-c3ccccc3)cc2C=O)c1`: the MIC with Streptococcus pyogenes, with Pseudomonas aeruginosa [1], against Staphylococcus aureus [2], in the assay with Escherichia coli [3] and against Klebsiella pneumoniae [4] was 5.5 µg/mL (≈ 11.4 µM) in each case.
As for `Cc1cc(OCc2cn(Cc3cccc([N+](=O)[O-])c3)nn2)cc2oc(=O)ccc12`, the MIC (with Curvularia lunata; in [9]; against Pseudomonas fluorescens; in the assay on Escherichia coli [10]; against Staphylococcus aureus [11]; with Penicillium chrysogenum) was 2 µg/mL (≈ 5.1 µM) each time. For the same compound, the MIC in the assay with Micrococcus luteus, with Bacillus cereus [12] and in the assay with Aspergillus niger was 2 µg/mL (≈ 5.1 µM) throughout.
For `O=c1cc(OCc2cn(Cc3cccc([N+](=O)[O-])c3)nn2)c2ccccc2o1`, the minimum inhibitory concentration (MIC) (in the assay with Curvularia lunata; in [9]; with Pseudomonas fluorescens; against Escherichia coli [10]; against Staphylococcus aureus [11]; in the assay on Penicillium chrysogenum) was 2 µg/mL (≈ 5.29 µM) in each case. Moreover, the minimum inhibitory concentration (MIC) against Micrococcus luteus, against Bacillus cereus [12] and with Aspergillus niger was 2 µg/mL (≈ 5.29 µM) throughout.
As to `Cc1cc(OCc2cn(Cc3ccc(Cl)cc3)nn2)cc2oc(=O)ccc12`, the MIC (against Curvularia lunata; in [9]; against Pseudomonas fluorescens; against Escherichia coli [10]; with Staphylococcus aureus [11]; in the assay with Penicillium chrysogenum) was 2 µg/mL (≈ 5.24 µM) in each case. In addition, the MIC in the assay on Micrococcus luteus, in the assay with Bacillus cereus [12] and in the assay with Aspergillus niger was 2 µg/mL (≈ 5.24 µM) each time.
For `O=Cc1cn(-c2ccccc2)nc1-c1ccccc1OCc1cn(Cc2ccc(C(=O)O)cc2)nn1`, the MIC against Streptococcus pyogenes, in the assay with Pseudomonas aeruginosa [1], in the assay with Staphylococcus aureus [2], with Escherichia coli [3] and with Klebsiella pneumoniae [4] was 5.5 µg/mL (≈ 11.5 µM) throughout.
With `O=c1cc(OCc2cn(Cc3ccc(Cl)cc3)nn2)c2ccccc2o1`, the MIC (in the assay on Curvularia lunata; in [9]; in the assay with Pseudomonas fluorescens; against Escherichia coli [10]; in the assay with Staphylococcus aureus [11]; against Penicillium chrysogenum) was 2 µg/mL (≈ 5.44 µM) in each case. Also, the MIC with Micrococcus luteus, against Bacillus cereus [12] and in the assay on Aspergillus niger was 2 µg/mL (≈ 5.44 µM) in each case.
Turning to `Clc1ccc(COC(Cn2ccnc2)c2ccc(Cl)cc2Cl)c(Cl)c1` (stereo not given) [MICONAZOLE], the MIC in the assay on Curvularia lunata, in the assay with Penicillium chrysogenum and against Aspergillus niger was 16 µg/mL (≈ 38.4 µM) throughout.
For `Cc1cc(OCc2cn(Cc3ccc([N+](=O)[O-])cc3)nn2)cc2oc(=O)ccc12`, the MIC (with Curvularia lunata; in assay [9]; in the assay on Pseudomonas fluorescens; with Escherichia coli [10]; with Staphylococcus aureus [11]; with Penicillium chrysogenum) was 2 µg/mL (≈ 5.1 µM) in each case. Moreover, the MIC in the assay on Micrococcus luteus, against Bacillus cereus [12] and with Aspergillus niger was 2 µg/mL (≈ 5.1 µM) throughout.
`Cc1cc(C)cc(Cn2cc(COc3ccccc3-c3nn(-c4ccccc4)cc3C=O)nn2)c1`: the MIC in the assay with Streptococcus pyogenes, with Pseudomonas aeruginosa [1], against Staphylococcus aureus [2], in the assay on Escherichia coli [3] and with Klebsiella pneumoniae [4] was 5.5 µg/mL (≈ 11.9 µM) in each case.
Consider `O=c1cc(OCc2cn(Cc3ccc(Br)cc3)nn2)c2ccccc2o1`, for which the MIC (in the assay with Curvularia lunata; in assay [9]; against Pseudomonas fluorescens; in the assay with Escherichia coli [10]; in the assay with Staphylococcus aureus [11]; with Penicillium chrysogenum) was 2 µg/mL (≈ 4.85 µM) in each case. Besides, the MIC in the assay on Micrococcus luteus, in the assay with Bacillus cereus [12] and in the assay with Aspergillus niger was 2 µg/mL (≈ 4.85 µM) throughout.
For `COc1ccc(Cn2cc(COc3ccccc3-c3nn(-c4ccccc4)cc3C=O)nn2)cc1`, the MIC against Streptococcus pyogenes, in the assay with Pseudomonas aeruginosa [1], in the assay on Staphylococcus aureus [2], with Escherichia coli [3] and in the assay with Klebsiella pneumoniae [4] was 6.5 µg/mL (≈ 14 µM) each time.
For the compound `O=C(N/N=C/c1cn(-c2ccccc2)nc1-c1cccc2ccccc12)c1cccc(-n2cc(-c3ccccc3)nn2)c1`, the MIC in the assay with Escherichia coli [13], in the assay with Pseudomonas aeruginosa [14], with Bacillus cereus [15] and against Staphylococcus aureus [16] was 2 µg/mL (≈ 3.57 µM) throughout.
